These are literature values, as cited in paper PMC7643960 (PLoS ONE, 2020).

Structures are written as SMILES.

This data set has as its system healthy horses. Particulars: 1% NVX-207 twice a day for seven consecutive days, eight healthy horses; cited from earlier work.

`C=C(C)[C@@H]1CC[C@]2(C(=O)O)CC[C@]3(C)[C@H](CC[C@@H]4[C@@]5(C)CC[C@H](O)C(C)(C)[C@@H]5CC[C@]43C)[C@@H]12` [betulinic acid, reference compound]: the “tolerability after topical application” value was “no compound-related local adverse effects”.
